Experimental findings from USRE47689E1, “Compounds for treating spinal muscular atrophy” (PTC Therapeutics, Inc., priority 2011, dated 2019) are described below.

Each structure is given as a SMILES string. Where two headings read alike, the source gives them in different places.

Data set [1] deals with SMN2 minigene (full length SMN2 minigene mRNA containing SMN2 exon 7). Nature of the data set: SMN2 minigene mRNA splicing RT-qPCR assay in cultured cells. As to conditions: Homo sapiens, HEK293-H, read-out: EC1.5x for production of full length SMN2 mRNA. In kind it is cell-based, human. In short, it runs like this:
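HEK293H cells stably carrying the SMN2-A minigene treated 24 h at 37° C with compound (DMSO, 200× stock), then lysed. Multiplex RT-qPCR (SMN primers 0.4 μM final; 40 cycles) measures full-length exon 7-containing minigene mRNA, normalized to GAPDH and to vehicle; EC1.5x derived and binned by stars.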
For orientation: Quantitative PCR measures a nucleic acid by following its amplification.

Another data set relates to Smn protein. Nature of the data set: Smn protein assay in cultured cells (SMN HTRF). In kind it is cell-based, human. As to conditions: 48 hours; for EC1.5x (concentration giving 1.5-fold Smn protein increase): SMA Type 1 patient fibroblast cells (GM03813), 7-point concentration curve, SMN HTRF, concentration producing 1.5 times Smn protein vs DMSO vehicle control, read-out: EC1.5x for Smn protein expression; for maximum fold (Fold) increase of Smn protein: SMA patient fibroblast cells, 7-point concentration data, fold increase relative to vehicle control (SMN HTRF). The procedure, abridged: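 Lysates in RIPA with protease inhibitors are incubated overnight at room temperature with HTRF anti-SMN antibodies. EC1.5x is derived from fold increase in ΔF over vehicle.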
On the technique in general: Time-resolved FRET reads energy transfer from a long-lived donor to a nearby acceptor.

The mark [2] stands for this setting: HEK293H cells stably transfected with SMN2-A minigene, 24 hours, 7-point concentration curve, 1.5-fold relative to vehicle-treated cells.

The term melting point denotes the temperature, or range, at which the solid turns liquid. On to `Cc1cn2cc(-c3cc4ccc(N5CCN(C6CCC6)CC5)cc4oc3=O)nc2c(C)n1` [Compound 822, 7-(4-cyclobutylpiperazin-1-yl)-3-(6,8-dimethylimidazo[1,2-a]pyrazin-2-yl)-2H-chromen-2-one], for which the melting point fell in the range of 260 to 262 °C. Moreover, the EC (1.5-fold) in data set [1] (setting [2]) is less than 0.1 µM. In the data set on Smn protein, the EC1.5x (concentration giving 1.5-fold Smn protein increase) is less than 300 nM; the “maximum fold (Fold) increase of Smn protein” value (from here on “maximum fold (Fold) increase”) was “**** (fold increase between >1.5 and ≤1.65)”.

`Cc1ccn2cc(-c3cc4ccc(N[C@@H]5CCNC5)cc4oc3=O)nc2c1` [Compound 496, 3-(7-methylimidazo[1,2-a]pyridin-2-yl)-7-[(3R)-pyrrolidin-3-ylamino]-2H-chromen-2-one] had a melting point of 244 to 254 °C. For the same molecule, in data set [1] (setting [2]), the EC (1.5-fold) is 0.3 to 1 µM. The “maximum fold (Fold) increase” value with Smn protein is “* (maximum fold increase of ≤1.2)”.

`Cc1csc(-c2cc3ccc(N4CCNCC4)cc3oc2=O)c1` [Compound 318, 3-(4-methylthiophen-2-yl)-7-(piperazin-1-yl)-2H-chromen-2-one] showed a melting point of 218 to 220 °C. Further, the EC (1.5-fold) in data set [1] (24 h) is 1 to 3 µM. Also, the “maximum fold (Fold) increase” value with Smn protein is on record as “* (maximum fold increase of ≤1.2)”.

Regarding `Cc1ccc2nc(-c3cc4ccc(CN(C)CCO)cc4oc3=O)cn2c1` [Cpd 148, 7-{[(2-hydroxyethyl)(methyl)amino]methyl}-3-(6-methylimidazo[1,2-a]pyridin-2-yl)-2H-chromen-2-one], the melting point was in the range of 166 to 169 °C. In addition, the EC (1.5-fold) in data set [1] (setting [2]) was 3 to 30 µM. Besides, in the data set with Smn protein, the EC1.5x (concentration giving 1.5-fold Smn protein increase) was 1000 to 3000 nM and the “maximum fold (Fold) increase” value was “***** (fold increase >1.65)”.

`CCN(CC)C1CCN(c2ccc3cc(-c4cc5c(C)nc(C)cn5c4)c(=O)oc3c2)C1` (stereo not drawn) [Compound 735, 7-[3-(diethylamino)pyrrolidin-1-yl]-3-(1,3-dimethylpyrrolo[1,2-a]pyrazin-7-yl)-2H-chromen-2-one] returned a melting point of 165 to 168 °C. Further, in data set [1] (setting [2]), the EC (1.5-fold) is less than 0.1 µM. In the data set with Smn protein, the EC1.5x (concentration giving 1.5-fold Smn protein increase) is 300 to 1000 nM; the “maximum fold (Fold) increase” value is “**** (fold increase between >1.5 and ≤1.65)”.

Molecule `C[C@@H]1CN(c2ccc3cc(-c4cn5ccc(C(F)(F)F)cc5n4)c(=O)oc3c2)CCN1` [Compound 267, 7-[(3R)-3-methylpiperazin-1-yl]-3-[7-(trifluoromethyl)imidazo[1,2-a]pyridin-2-yl]-2H-chromen-2-one] returned a melting point of 252 to 260 °C. Also, the EC (1.5-fold) in data set [1] (setting [2]) fell in the range of 1 to 3 µM. Also, the “maximum fold (Fold) increase” value in the data set on Smn protein was “* (maximum fold increase of ≤1.2)”.

In turn, `Cc1nc(Cl)cn2cc(-c3cc4ccc(N5CCCN(C)CC5)cc4oc3=O)nc12` [Cpd 712, 3-(6-chloro-8-methylimidazo[1,2-a]pyrazin-2-yl)-7-(4-methyl-1,4-diazepan-1-yl)-2H-chromen-2-one] registered a melting point of 212 to 218 °C. The EC (1.5-fold) in data set [1] (setting [2]) is less than 0.1 µM. In addition, the “maximum fold (Fold) increase” value in the data set with Smn protein was “** (fold increase between >1.2 and ≤1.35)”.

The molecule `COc1cccn2cc(-c3cc4ccc(N5CCCN(C)CC5)cc4oc3=O)nc12` [Compound 419, 3-(8-methoxyimidazo[1,2-a]pyridin-2-yl)-7-(4-methyl-1,4-diazepan-1-yl)-2H-chromen-2-one] yielded a melting point of 212 to 215 °C. Also, the EC (1.5-fold) in data set [1] (setting [2]) lay within 0.3 to 1 µM. Besides, the “maximum fold (Fold) increase” value in the data set on Smn protein is “** (fold increase between >1.2 and ≤1.35)”.

Turning to `Cc1nc2ccc(-c3cc4ccc(N5CCN(C)CC5)cc4oc3=O)cc2s1` [Cpd 769, 3-(2-methyl-1,3-benzothiazol-6-yl)-7-(4-methylpiperazin-1-yl)-2H-chromen-2-one], the melting point lay in the range of 215 to 217 °C. In addition, the EC (1.5-fold) in data set [1] (setting [2]) is 0.3 to 1 µM. Also, the “maximum fold (Fold) increase” value in the data set with Smn protein is “** (fold increase between >1.2 and ≤1.35)”.

As for `Cc1cn2cc(-c3cc4ccc(N5CCN(C(C)(C)C)CC5)cc4oc3=O)nc2c(C)n1` [Compound 812, 7-(4-tert-butylpiperazin-1-yl)-3-(6,8-dimethylimidazo[1,2-a]pyrazin-2-yl)-2H-chromen-2-one], the melting point was in the range of 270 to 272 °C. Further, the EC (1.5-fold) in data set [1] (setting [2]) was less than 0.1 µM. Moreover, the “maximum fold (Fold) increase” value in the data set on Smn protein was “*** (fold increase between >1.35 and ≤1.5)”.

In turn, `CC1(C)CN(c2ccc3cc(-c4cn5ccc(C(F)(F)F)cc5n4)c(=O)oc3c2)CCN1` [Compound 269, 7-(3,3-dimethylpiperazin-1-yl)-3-[7-(trifluoromethyl)imidazo[1,2-a]pyridin-2-yl]-2H-chromen-2-one] displayed a melting point of 221 to 227 °C. Also, the EC (1.5-fold) in data set [1] (setting [2]) was in the range of 1 to 3 µM. Besides, in the data set with Smn protein, the “maximum fold (Fold) increase” value is “* (maximum fold increase of ≤1.2)”.

`CN1CCN(c2ccc3cc(-c4ccsc4)c(=O)oc3c2)CC1` [Compound 320, 7-(4-methylpiperazin-1-yl)-3-(thiophen-3-yl)-2H-chromen-2-one]: the melting point was in the range of 151 to 153 °C. In addition, the EC (1.5-fold) in data set [1] (24 h) was 1 to 3 µM. Further, the “maximum fold (Fold) increase” value with Smn protein is recorded as “* (maximum fold increase of ≤1.2)”.

On to `COc1cccc(-c2cc3c(F)cc(N4CCNCC4)cc3oc2=O)n1` [Compound 468, 5-fluoro-3-(6-methoxypyridin-2-yl)-7-(piperazin-1-yl)-2H-chromen-2-one], for which the melting point was in the range of 231 to 236 °C. The EC (1.5-fold) in data set [1] (setting [2]) is 0.3 to 1 µM. Also, the “maximum fold (Fold) increase” value in the data set on Smn protein is “** (fold increase between >1.2 and ≤1.35)”.

In turn, `C[C@H]1CN(c2ccc3cc(-c4ccc(F)c(Cl)c4)c(=O)oc3c2)CCN1` [Compound 485, 3-(3-chloro-4-fluorophenyl)-7-[(3S)-3-methylpiperazin-1-yl]-2H-chromen-2-one] returned a melting point of 143 to 145 °C. In addition, the EC (1.5-fold) in data set [1] (setting [2]) is 1 to 3 µM. Moreover, the “maximum fold (Fold) increase” value in the data set on Smn protein is listed as “* (maximum fold increase of ≤1.2)”.

With `O=c1oc2cc(N3CCNCC3)ccc2cc1-c1cc2ccccc2s1` [Compound 407, 3-(1-benzothiophen-2-yl)-7-(piperazin-1-yl)-2H-chromen-2-one], the melting point fell in the range of 243 to 245 °C. Further, the EC (1.5-fold) in data set [1] (setting [2]) was in the range of 0.3 to 1 µM. Besides, the “maximum fold (Fold) increase” value in the data set on Smn protein is on record as “* (maximum fold increase of ≤1.2)”.

The molecule `Cc1cn2cc(-c3cc4ccc(N5CC(CN(C)C)C5)cc4oc3=O)nc2c(C)n1` [Compound 966, 7-{3-[(dimethylamino)methyl]azetidin-1-yl}-3-(6,8-dimethylimidazo[1,2-a]pyrazin-2-yl)-2H-chromen-2-one] registered a melting point of 150 to 152 °C. Also, the EC (1.5-fold) in data set [1] (setting [2]) was less than 0.1 µM. For the same molecule, in the data set on Smn protein, the EC1.5x (concentration giving 1.5-fold Smn protein increase) is less than 300 nM; the “maximum fold (Fold) increase” value was “**** (fold increase between >1.5 and ≤1.65)”.

`O=c1oc2cc(N3CCCNCC3)cc(F)c2cc1-c1cn2cccnc2n1` [Compound 336, 7-(1,4-diazepan-1-yl)-5-fluoro-3-(imidazo[1,2-a]pyrimidin-2-yl)-2H-chromen-2-one] showed a melting point of 305 to 307 °C. Moreover, in data set [1] (setting [2]), the EC (1.5-fold) is 0.3 to 1 µM. Moreover, the “maximum fold (Fold) increase” value with Smn protein is given as “* (maximum fold increase of ≤1.2)”.

The molecule `Cc1cn2cc(-c3cc4ccc(N5CC[C@H](N(C)C)C5)cc4oc3=O)nc2c(C)n1` [Compound 691, 7-[(3S)-3-(dimethylamino)pyrrolidin-1-yl]-3-(6,8-dimethylimidazo[1,2-a]pyrazin-2-yl)-2H-chromen-2-one] had a melting point of 244 to 246 °C. In addition, the EC (1.5-fold) in data set [1] (setting [2]) was less than 0.1 µM. For the same molecule, in the data set on Smn protein, the EC1.5x (concentration giving 1.5-fold Smn protein increase) is less than 300 nM; the “maximum fold (Fold) increase” value was “**** (fold increase between >1.5 and ≤1.65)”.

`Cc1cn2cc(-c3cc4ccc(N5CCN(C)[C@H](C)C5)cc4oc3=O)ccc2n1` [Compound 661, 7-[(3R)-3,4-dimethylpiperazin-1-yl]-3-(2-methylimidazo[1,2-a]pyridin-6-yl)-2H-chromen-2-one] showed a melting point of 206 to 209 °C. The EC (1.5-fold) in data set [1] (setting [2]) is less than 0.1 µM. Besides, in the data set with Smn protein, the EC1.5x (concentration giving 1.5-fold Smn protein increase) is less than 300 nM and the “maximum fold (Fold) increase” value was “***** (fold increase >1.65)”.

The molecule `COc1cc(OC)cc(-c2cc3ccc(N4CCN[C@H](C)C4)cc3oc2=O)c1` [Compound 412, 3-(3,5-dimethoxyphenyl)-7-[(3R)-3-methylpiperazin-1-yl]-2H-chromen-2-one] had a melting point of 148 to 150 °C. In addition, the EC (1.5-fold) in data set [1] (setting [2]) lay within 3 to 30 µM. Further, the “maximum fold (Fold) increase” value in the data set on Smn protein is “* (maximum fold increase of ≤1.2)”.

With `Cc1nc2ccc(-c3cc4ccc(N5CCCNCC5)cc4oc3=O)cc2s1` [Compound 771, 7-(1,4-diazepan-1-yl)-3-(2-methyl-1,3-benzothiazol-6-yl)-2H-chromen-2-one], the melting point lay in the range of 228 to 230 °C. Also, in data set [1] (setting [2]), the EC (1.5-fold) fell in the range of 1 to 3 µM. Moreover, in the data set on Smn protein, the “maximum fold (Fold) increase” value is “* (maximum fold increase of ≤1.2)”.

`O=c1oc2cc(N3CCNCC3)ccc2cc1-c1cc(F)cc(F)c1` [Compound 291, 3-(3,5-difluorophenyl)-7-(piperazin-1-yl)-2H-chromen-2-one] had a melting point of 202 to 206 °C. Besides, the EC (1.5-fold) in data set [1] (setting [2]) was 0.3 to 1 µM. Besides, the “maximum fold (Fold) increase” value with Smn protein was “* (maximum fold increase of ≤1.2)”.
